# Structures can show the parent of a compound that is named as a salt.
# Key:
# MRSA [1] = assay: Inhibition of MRSA biofilm formation (crystal violet); type: cell-based, Staphylococcus aureus; conditions: Staphylococcus aureus
# Experimental: (§1) A dose-response study was then initiated in which both the IC50 and EC50 value of each compound towards the bacterial strains were determined (Table 1). Here, IC50 is defined as the concentration of compound that inhibits 50% biofilm development while EC50 is defined as the concentration of compound that disperses 50% of a pre-formed biofilm.
# Procedure to Determine the Inhibitory Effect of Test Compounds on E. faecium, MRSA, S. epidermidis, PAO1 and MDRAB Biofilm Formation:
# (§2) Inhibition assays were performed by taking an overnight culture of bacterial strain and subculturing it at an OD600 of 0.01 into the necessary media (brain heart infusion for E. faecium, tryptic soy broth with a 0.5% glucose supplement (TSBG) for MRSA, Luria-Bertani (LB) media for MDRAB, Luria-Bertani media without NaCl (LBNS) for PAO1 and tryptic soy broth with a 0.5% glucose supplement and a 3.0% NaCl supplement (TGN) for S. epidermidis. Stock solutions of predetermined concentrations of the test compound were then made in the necessary media. These stock solutions were aliquoted (100 μL) into the wells of the 96-well PVC microtiter plate. Sample plates were then wrapped in GLAD Press n′ Seal® followed by an incubation under stationary conditions for 24 h at 37° C. After incubation, the media was discarded from the wells and the plates were washed thoroughly with water. Plates were then stained with 100 μL of 0.1% solution of crystal violet (CV) and then incubated at ambient temperature for 30 min. Plates were washed with water again and the remaining stain was solubilized with 200 μL of 95% ethanol. A sample of 125 μL of solubilized CV stain from each well was transferred to the corresponding wells of a polystyrene microtiter dish. Biofilm inhibition was quantitated by measuring the OD540 of each well in which a negative control lane wherein no biofilm was formed served as a background and was subtracted out.
# as §2, with “2-(2-amino-1H-benzo[d]imidazol-6-ylcarbamoyl)-3,4,5,6-tetrachlorobenzoic acid hydrochloride” for “test compound”, “media. Samples were then doped with 10.0 μM FeSO4 with samples with no test compound to examine effects of 10.0 μM FeSO4 on biofilm formation.” for “media.”
# [2] = tested on: vancomycin-resistant Enterococcus faecium (VRE); assay: Dispersion of preformed VRE (E. faecium) biofilm; type: cell-based; conditions: concentration that disperses 50% of a pre-formed biofilm
# Experimental: as §1
# (§3) Procedure to Determine the Dispersal Effect of Test Compounds on E. faecium, MRSA and S. epidermidis Preformed Biofilms:
# (§4) Dispersion assays were performed by taking an overnight culture of bacterial strain and subculturing it at an OD600 of 0.01 into the necessary media (brain heart infusion for E. faecium, tryptic soy broth with a 0.5% glucose supplement (TSBG) for MRSA and tryptic soy broth with a 0.5% glucose supplement and a 3.0% NaCl supplement (TGN) for S. epidermidis. The resulting bacterial suspension was aliquoted (100 μL) into the wells of a 96-well PVC microtiter plate. Plates were then wrapped in GLAD Press n′ Seal® followed by an incubation under stationary conditions at ambient temperature to establish the biofilms. After 24 h, the media was discarded from the wells and the plates were washed thoroughly with water. Stock solutions of predetermined concentrations of the test compound were then made in the necessary media. These stock solutions were aliquoted (100 μL) into the wells of the 96-well PVC microtiter plate with the established biofilms. Media alone was added to a subset of the wells to serve as a control. Sample Plates were then incubated for 24 h at 37° C. After incubation, the media was discarded from the wells and the plates were washed thoroughly with water. Plates were then stained with 100 μL of 0.1% solution of crystal violet (CV) and then incubated at ambient temperature for 30 min. Plates were washed with water again and the remaining stain was solubilized with 200 μL of 95% ethanol. A sample of 125 μL of solubilized CV stain from each well was transferred to the corresponding wells of a polystyrene microtiter dish. Biofilm dispersion was quantitated by measuring the OD540 of each well in which a negative control lane wherein no biofilm was formed served as a background and was subtracted out.
# [3] = 1H NMR binding control experiment with FeSO4; conditions: 0, 0.5, or 1.0 equivalents FeSO4
# Experimental: (§5) Given this Zn(II)-dependence, the ability of 3 to bind zinc directly was determined to ascertain if the mechanism was potentially occurring via a Zn(II)-binding mechanism. To answer this question, an ^1H NMR binding experiment was performed in which the chemical shifts of 3 were measured in the presence of 0 equivalents, 0.5 equivalents, and 1.0 equivalents ZnCl2. […] As a control, the same experiment was performed with FeSO4.
# MRSA [4] = assay: Dispersion of preformed MRSA biofilm; type: cell-based, Staphylococcus aureus; conditions: concentration that disperses 50% of a pre-formed biofilm
# Experimental: as §1, §3, §4
# [5] = Divalent zinc binding via 1H NMR spectroscopy; conditions: 0, 0.5, 1.0 equivalents ZnCl2; DMSO
# Experimental: as §5
# Procedure to Determine the Divalent Zinc Binding Effects of Test Compounds via ^1H NMR Spectroscopy:
# ^1H NMR Spectra were obtained of the test compounds in DMSO on a 400 MHz NMR in the absence and in the presence of one equivalent of ZnCl2. 2-(2-amino-1H-benzo[d]imidazol-5-ylcarbamoyl)-3,4,5,6-tetrachlorobenzoic acid hydrochloride was tested at a 228 mM. 2,3,4,5-tetrachloro-6-(phenylcarbamoyl)benzoic acid was tested at 275 mM. 1H-benzo[d]imidazol-2-amine hydrochloride was tested at 649 mM.
structure (smiles),measurement,setting,value
"Nc1nc2ccc(NC(=O)c3c(Cl)c(Cl)c(Cl)c(Cl)c3C(=O)O)cc2[nH]1 [Compound 3, 2-(2-amino-1H-benzo[d]imidazol-6-ylcarbamoyl)-3,4,5,6-tetrachlorobenzoic acid hydrochloride]",IC50,MRSA [1],860 nM
same,IC50,MRSA [1]; concentration that inhibits 50% biofilm development,890 ± 10 nM
same,EC50,[2],74800 nM
same,EC50,[2]; hydrochloride,75000 nM
same,change in NMR signal with FeSO4,[3],No change
same,EC50,MRSA [4]; Staphylococcus aureus,2920 nM
same,EC50,MRSA [4]; hydrochloride,2900 nM
same,"zinc binding, change of 1H NMR signals",[5],directly binding ZnCl2
